One assay concerns the target T1, Histone deacetylase 8 (Homo sapiens, UniProt Q9BY41).
T1 sequence (Q9BY41 whole entry): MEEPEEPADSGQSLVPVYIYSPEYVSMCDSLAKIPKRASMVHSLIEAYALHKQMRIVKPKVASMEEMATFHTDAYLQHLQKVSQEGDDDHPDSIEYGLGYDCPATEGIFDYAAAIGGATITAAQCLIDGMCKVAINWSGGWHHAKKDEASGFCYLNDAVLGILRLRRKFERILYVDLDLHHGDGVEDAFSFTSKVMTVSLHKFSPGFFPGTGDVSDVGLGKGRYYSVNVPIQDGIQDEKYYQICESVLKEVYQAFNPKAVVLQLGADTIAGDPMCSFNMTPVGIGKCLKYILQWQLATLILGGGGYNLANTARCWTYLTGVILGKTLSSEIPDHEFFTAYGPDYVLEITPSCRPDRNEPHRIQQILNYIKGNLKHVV
Kind of assay: Inhibition of HDAC8 (unknown origin).

A further assay deals with Histone deacetylase 2 (Homo sapiens, UniProt Q92769). Kind of assay: Inhibition of HDAC2 (unknown origin).
The test system of another assay is A20. As to the kind of experiment: Antitumor activity against mouse A20 cells implanted in mouse assessed as tumor weight inhibition at 15 mg/kg, ip measured after 12 days relative to control. In kind it is functional. Particulars: A20, 288 h, time 12 day.
A further assay deals with HGC-27. Kind of assay: Antitumor activity against human HGC-27 cells xenografted in mouse assessed as tumor weight inhibition at 30 to 150 mg/kg, ip relative to control. In kind it is functional. Particulars: dose 30-150 mg/kg. (Xenograft models place foreign cells or tissue in a host animal.)
The subject of assay [1] is HCT-116. As to the kind of experiment: Antitumor activity against human HCT-116 cells xenografted in mouse assessed as tumor weight inhibition at 30 to 150 mg/kg, ip relative to control. In kind it is functional. As to conditions: dose 30-150 mg/kg.
The next assay deals with K562. Kind of assay: cells. In kind it is functional, cell-based. Particulars: Homo sapiens, K562, 72 h; pooled result: one value given for 11 cell lines, strains, targets or settings.
The test system of the next assay is EL4. Kind of assay: Antitumor activity against mouse EL4 cells implanted in mouse assessed as tumor weight inhibition at 15 mg/kg, ip measured after 12 days relative to control. In kind it is functional. As to conditions: EL4, 288 h, time 12 day.
In a further assay the test system is MCF7. As to the kind of experiment: Antiproliferative activity against human MCF7 cells measured after 72 hrs by MTT assay. In kind it is functional, cell-based. Particulars: MCF7, 72 h. (In general: Formazan colour is commonly taken as a measure of viable cells.)
Assay [2] concerns HCT-116. As to the kind of experiment: Antiproliferative activity against human HCT-116 cells measured after 72 hrs by MTT assay. In kind it is functional, cell-based. Particulars: HCT-116, 72 h.
The next assay concerns the target Histone deacetylase 1 (Homo sapiens, UniProt Q13547). Kind of assay: Inhibition of HDAC1 (unknown origin) using Ac-peptide as substrate pretreated for 15 mins followed by substrate addition and measured after 60 mins.
The test system of assay [3] is A549. As to the kind of experiment: Antiproliferative activity against human A549 cells measured after 72 hrs by MTT assay. Particulars: A549, 72 h. In kind it is functional, cell-based.
The subject of the next assay is NCI-H23. Kind of assay: Antiproliferative activity against human NCI-H23 cells incubated for 48 hrs by colorimetric method. In kind it is functional, cell-based. Particulars: NCI-H23, 48 h.
The subject of the next assay is 143B. Kind of assay: Antiproliferative activity against human 143B cells. In kind it is functional.
The test system of another assay is HOS. As to the kind of experiment: Antiproliferative activity against human HOS cells. The class given is functional.
The test system of another assay is SW-620. As to the kind of experiment: Antiproliferative activity against human SW620 cells incubated for 48 hrs by colorimetric method. In kind it is functional, cell-based. As to conditions: SW-620, 48 h.
The subject of a further assay is SAOS-2. Kind of assay: Antiproliferative activity against human SAOS-2 cells. In kind it is functional.
Another assay deals with PC-3. Kind of assay: Antiproliferative activity against human PC-3 cells incubated for 48 hrs by colorimetric method. The class given is functional, cell-based. As to conditions: PC-3, 48 h.
Assay [4] relates to HCT-116. As to the kind of experiment: cells. The class given is functional, cell-based. Particulars: Homo sapiens, HCT-116, 48 h.
Assay [5] concerns A549. As to the kind of experiment: Antiproliferative activity against human A549 cells assessed as inhibition of cell growth incubated for 48 hrs by SRB assay. The class given is functional, cell-based. As to conditions: A549, 48 h. On the technique in general: Sulforhodamine B stains cellular protein and so reports cell mass.
For assay [6], the target named is T2, Protein deacetylase HDAC6 (Homo sapiens, UniProt Q9UBN7).
T2 sequence (Q9UBN7 whole entry): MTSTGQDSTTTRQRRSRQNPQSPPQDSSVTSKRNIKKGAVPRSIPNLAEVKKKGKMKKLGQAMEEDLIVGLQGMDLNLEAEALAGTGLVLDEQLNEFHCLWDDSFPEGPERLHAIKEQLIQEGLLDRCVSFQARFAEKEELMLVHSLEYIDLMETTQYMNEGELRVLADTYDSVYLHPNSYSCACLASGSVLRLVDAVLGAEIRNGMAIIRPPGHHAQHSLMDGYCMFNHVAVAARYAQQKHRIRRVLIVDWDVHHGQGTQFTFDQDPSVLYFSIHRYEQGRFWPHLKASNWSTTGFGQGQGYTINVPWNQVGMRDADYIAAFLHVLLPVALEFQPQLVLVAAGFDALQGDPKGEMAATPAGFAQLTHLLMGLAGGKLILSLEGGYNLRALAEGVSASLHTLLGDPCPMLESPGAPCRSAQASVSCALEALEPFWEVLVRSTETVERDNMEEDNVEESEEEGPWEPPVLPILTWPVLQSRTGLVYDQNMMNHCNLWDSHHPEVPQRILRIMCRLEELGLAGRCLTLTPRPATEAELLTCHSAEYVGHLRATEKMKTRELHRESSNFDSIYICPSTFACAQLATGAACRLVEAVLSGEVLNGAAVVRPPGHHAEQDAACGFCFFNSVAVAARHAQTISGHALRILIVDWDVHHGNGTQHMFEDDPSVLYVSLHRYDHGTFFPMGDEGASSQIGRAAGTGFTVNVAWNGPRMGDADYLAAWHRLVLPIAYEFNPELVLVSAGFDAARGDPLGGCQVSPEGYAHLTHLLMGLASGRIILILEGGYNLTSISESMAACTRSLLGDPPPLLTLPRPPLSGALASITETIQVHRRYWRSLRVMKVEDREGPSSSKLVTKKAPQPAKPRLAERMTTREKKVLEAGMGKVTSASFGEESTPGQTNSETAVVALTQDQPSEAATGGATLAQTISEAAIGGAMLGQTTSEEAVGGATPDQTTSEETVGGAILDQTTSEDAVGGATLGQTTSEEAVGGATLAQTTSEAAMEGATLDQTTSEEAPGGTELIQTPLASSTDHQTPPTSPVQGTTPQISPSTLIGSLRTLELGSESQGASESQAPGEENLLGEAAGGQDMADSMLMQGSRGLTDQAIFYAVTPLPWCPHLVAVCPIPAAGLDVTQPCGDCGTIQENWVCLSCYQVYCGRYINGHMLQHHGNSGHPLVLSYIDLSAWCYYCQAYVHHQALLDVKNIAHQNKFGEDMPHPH
As to the kind of experiment: Inhibition of human recombinant HDAC6 using Fluor-de-Lys deacetylase as substrate by Spectrofluorimetry.

The results in this text go back to ChEMBL document CHEMBL5614367, “Hydroxamic acid hybrids: Histone deacetylase inhibitors with anticancer therapeutic potency” (Eur J Med Chem, 2023).

Chain of Histone deacetylase 1 (Q13547 whole entry): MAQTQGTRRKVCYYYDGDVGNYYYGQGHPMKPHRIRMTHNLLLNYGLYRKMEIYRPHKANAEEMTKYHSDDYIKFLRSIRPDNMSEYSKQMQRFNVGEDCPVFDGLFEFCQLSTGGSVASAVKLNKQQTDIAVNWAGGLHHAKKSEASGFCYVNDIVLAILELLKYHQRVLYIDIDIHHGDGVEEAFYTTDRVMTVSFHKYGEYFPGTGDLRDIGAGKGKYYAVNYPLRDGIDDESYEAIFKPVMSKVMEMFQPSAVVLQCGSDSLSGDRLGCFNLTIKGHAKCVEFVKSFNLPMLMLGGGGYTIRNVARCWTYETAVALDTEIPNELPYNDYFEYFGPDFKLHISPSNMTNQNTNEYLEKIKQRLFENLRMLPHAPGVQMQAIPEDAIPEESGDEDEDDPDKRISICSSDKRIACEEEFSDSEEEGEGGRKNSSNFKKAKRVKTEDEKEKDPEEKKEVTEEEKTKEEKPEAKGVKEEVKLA
Chain of Histone deacetylase 2 (Q92769 whole entry): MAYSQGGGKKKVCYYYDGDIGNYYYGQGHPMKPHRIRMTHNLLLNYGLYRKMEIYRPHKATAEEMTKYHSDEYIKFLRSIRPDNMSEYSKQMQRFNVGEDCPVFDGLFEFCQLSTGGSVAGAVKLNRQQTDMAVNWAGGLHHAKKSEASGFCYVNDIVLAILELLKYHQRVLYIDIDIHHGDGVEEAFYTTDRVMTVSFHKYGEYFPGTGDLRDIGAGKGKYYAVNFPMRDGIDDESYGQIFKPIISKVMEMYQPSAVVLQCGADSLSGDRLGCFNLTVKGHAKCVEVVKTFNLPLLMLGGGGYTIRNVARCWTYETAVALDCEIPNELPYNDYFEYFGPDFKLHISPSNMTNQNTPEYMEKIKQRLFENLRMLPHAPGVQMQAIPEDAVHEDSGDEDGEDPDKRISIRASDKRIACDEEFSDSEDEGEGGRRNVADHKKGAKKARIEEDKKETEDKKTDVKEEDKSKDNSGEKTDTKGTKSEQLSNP

As usually defined, the IC50 is the concentration at which inhibition is half-maximal. By inhibition in vivo is commonly meant the percentage by which the read-out fell short of the control. For the compound `COc1ncc(-c2cc(OCCCCCCC(=O)NO)c3ncnc(C)c3c2)cc1F`, the values for the IC50 against Histone deacetylase 8, against Histone deacetylase 2 and in the assay with K562 were 1.4 nM, 1.4 nM and 23 nM, respectively. Also, the inhibition in vivo at 15 mg/kg came to 60% in the assay with A20 and 78.1% in the assay with EL4. Also, the “inhibition (INH)” value in the assay on HGC-27 turned out to be 62.6%; in the assay with HCT-116 [1], 45.8%.
`COc1cc2c(Oc3ccc(NC(=O)C4CCN(c5ccc(F)cc5)C4=O)cc3)ccnc2cc1OCCCCCCC(=O)NO` (stereo not given): the IC50 came to 280 nM in the assay on MCF7, 280 nM in the assay on HCT-116 [2], 27 nM on Histone deacetylase 1 and 280 nM in the assay on A549 [3].
The GI50 is the concentration at which growth is held to half of that of the control. Lower therefore signals greater sensitivity of the cells. For `O=C(/C=C/c1cccc(S(=O)(=O)Nc2ccccc2)c1)NO` [BELINOSTAT], the IC50 in the assay with NCI-H23, in the assay with SW-620 and in the assay on PC-3 was 2530 nM in each case. The GI50 in the assay on 143B, in the assay on HOS and with SAOS-2 was 3300 nM throughout.
With `O=C(NO)c1ccc(CNc2cccc3cc(-c4ccncc4)cnc23)cc1`, the figures for the IC50 (in the assay with HCT-116 [4]; with A549 [5]; in assay [6]) were 1290 nM, 1290 nM and 8.16 nM, respectively.
